In patent publication US20210017607A1, “Methods of Predicting Responsiveness to Cancer Therapies” (The University of Chicago, priority 2019, published 2021):
Values after ≈ are worked out from the molar mass of the structure shown. Read-outs that look alike come from different tables or passages of the source.

Assays:
ID8 ovarian cancer cells = assay: ID8 cells in vitro STING pathway activation (western, ImageStream, ELISA); assay type: cell-based, mouse; conditions: for STING pathway activation within ID8-PTEN^−/− cells / IFNB1 levels in combination with STING agonist DMXAA, ID8-PTEN^−/− cells: 36 hours; for IFNB1 levels in combination with STING agonist DMXAA, ID8-PTEN^−/− cells: ELISA
Method: FIGS. 56A and 56B. […] (56A) PTEN-proficient (PTEN^+/+) and deficient (PTEN^−/−) ID8 ovarian cancer cells were treated with DMXAA (50 μg/mL) for 0, 1, 6, 12, 24 and 36 hours. Nuclear extracts were probed for localization of p-IRF3 and p-NF-kB, markers of STING pathway activation. n=1 independent experiment. (56B) Wild-type (PTEN^+/+) and PTEN-deficient (PTEN^−/−) Myc-CAP (prostate) and ID8 (ovarian) cancer cells were treated with DMXAA (50 μg/mL) for 36 hours. The supernatants were analyzed by ELISA for IFN-β1 release. n=3 independent experiments.
FIGS. 57A-57C. […] PTEN-proficient (PTEN+/+) and deficient (PTEN−/−) ID8 ovarian cancer cells were treated with DMXAA (50 μg/mL) for 0, 12, 24 and 36 hours. (57A) The nuclear localization of p-IRF3 and p-NFkB was analyzed by ImageStream. The overlap of the two generates a white color that scores for nuclear localization of pIRF3. (57B) Graphical representation of nuclear localization of pIRF3 and p-NF-kB at 12, 24, and 36 hours after DMXAA treatment, relative to untreated groups in ID8 wild-type and PTEN^−/− cells. n=3 independent experiments.
FIGS. 58A and 58B. […] (58A) PTEN-proficient (PTEN^+/+) and deficient (PTEN^−/−) ID8 ovarian cancer cells were treated with IC90 concentrations of pan-PI3K inhibitors, either copanlisib (100 nM) or BKM120 (1000 nM) for 36 hours in presence or absence of STING agonists, DMXAA (50 μg/mL, 1 hour at the end of experiment). The activation status of both PI3K and STING signaling pathways were probed with the indicated antibodies by western blotting. n=2 independent experiments. (58B) Cells were treated as described in (58A), with the exception that concomitant DMXAA treatment was carried out for 36 hours. The supernatants were analyzed by ELISA for IFN-β1 release. n=3 independent experiments.
Cytokine Array/IFNβ1 ELISA. Supernatants from untreated or drug treated cancer cell lines and bone marrow derived macrophages were collected at 36 hours and spun down at 2000×g for 5 min at 4° C. to remove cellular debris. These clear supernatants were processed for detection of Type I Interferon by ELISA (LEGEND MAX™ Mouse IFNβ1 ELISA, Biolegend®) or for determination of a panel of cytokines/chemokines using LEGENDplex™ array (Mouse Anti-Virus Response Panel, Biolegend®) as per instructions in protocol provided.
Western blotting. RIPA buffer (Boston BioProducts) supplemented with protease (Roche®) and HALT phosphatase inhibitor cocktail (Thermo Scientific®) was used for preparation of total cell lysates. For western blotting, the following antibodies were used from Cell Signaling Technology®: Polyclonal rabbit anti-mouse-, phospho-AKT, total AKT, c-GAS, STING, phospho-IRF3, total IRF3, phospho-TBK1, total TBK1, PTEN, phospho NF-kB, total NF-kB, p53, lamin B1, β-actin, alpha-tubulin, and GAPDH. Images of scanned blots were processed using ADOBE Photoshop.
Image Stream Analysis. PTEN-proficient and deficient ID8 ovarian cancer cells were treated with DMXAA (50 ug/mL) for 0, 12, 24, and 36 hours. After termination at endpoints, cells were stained with primary antibodies—anti-mouse p-IRF3 (Cell Signaling Technology®), p-NFkB (Cell Signaling Technology®), followed by incubation with flurochrome tagged secondary antibodies and DAPI. Images of nuclear localization of p-IRF3 and p-NF-kB within single cells were acquired using ImageStreamg®^x Mark II (Amnis®) and data obtained was analyzed using IDEAS® software.

[1] = IC90 concentrations stated for in vitro/ex vivo drug treatments; conditions: for IC90: read-out: IC90 concentration
[2] = FIG. 38, Myc-CAP-PTEN+/+ and PTEN−/− tumor suspensions
[3] = FIG. 50, Myc-CAP-PTEN^−/− tumor suspensions
[4] = FIG. 58, ID8 ovarian cancer cells

Compound: Cc1ccc2c(=O)c3cccc(CC(=O)O)c3oc2c1C [DMXAA, 5,6-Dimethylxanthenone-4-acetic Acid]
- STING pathway activation after PTEN knockdown (ID8 ovarian cancer cells; DMXAA 50 μg/mL): abrogates STING pathway activation
- IRF3 translocation to the nucleus after PTEN knockdown (ID8 ovarian cancer cells; DMXAA 50 μg/mL, 0-36 hours): abolishes IRF3 translocation to the nucleus
- IC90 concentration [1, 2]: 50 µg/mL (≈ 177 µM)
- IC90 concentration [1, 3]: 50 µg/mL (≈ 177 µM)

Compound: Nc1cc(C(F)(F)F)c(-c2cc(N3CCOCC3)nc(N3CCOCC3)n2)cn1 [buparlisib]
- STING pathway activation within ID8-PTEN^−/− cells (ID8 ovarian cancer cells): partially restore STING pathway activation
- IFNB1 levels in combination with STING agonist DMXAA, ID8-PTEN^−/− cells (ID8 ovarian cancer cells): unable to rescue IFNB1 levels
- IC90 [1, 2]: 1000 nM
- IC90 [1, 4]: 1000 nM

Compound: COc1c(OCCCN2CCOCC2)ccc2c1N=C(NC(=O)c1cnc(N)nc1)N1CCN=C21 [copanlisib]
- STING pathway activation within ID8-PTEN^−/− cells (ID8 ovarian cancer cells): partially restore STING pathway activation
- IFNB1 levels in combination with STING agonist DMXAA, ID8-PTEN^−/− cells (ID8 ovarian cancer cells): unable to rescue IFNB1 levels
- IC90 [1, 3]: 500 nM
- IC90 [1, 4]: 100 nM
- IC90 ([1]; Myc-CAP-PTEN^−/− cells in vitro (FIG. 35)): 100 nM

Compound: CNCc1ccc(-c2[nH]c3cc(F)cc4c3c2CCNC4=O)cc1 [rucaparib]
- IC90 [1, 2]: 500 nM
